Experimental data as given in a melting point compilation (Tetko et al.; mined from patent text by program, amines drawn as free bases though some values may be those of a salt).

Structure (SMILES) | melting point [°C]
CC(C)(C)CCN(CCC(C)(C)C)[C@@H](CC(=O)O)C(=O)O | 197 to 198
CCOC(=O)C1=C(C(=O)OCC)C(c2ccccc2[N+](=O)[O-])C(C(=O)OCC)=C(C(=O)OCC)N1 | 109
OC1CSC(Oc2ccc(-c3ccsc3)nc2)C(O)C1O (stereo unspecified) | 154
C=CC(C)ONC(=O)c1nc(-c2ccc(Cl)c(OC)c2F)cc(N)c1Cl (stereo unspecified) | 176 to 179
C=Cc1cc(Br)c(OC(C)=O)c(Br)c1 | 76
O=c1oc(C(F)(F)F)ccc1-c1ccc(F)cc1F | 98 to 100
Cc1ccc(Oc2ccc(OC(=O)NC(C)CCCC(C)C)cc2)cc1 (stereo unspecified) | 45 to 47
CN1C(=O)CCC2=C1Cc1cc(C(=O)c3ccc(Cl)c(S(N)(=O)=O)c3)ccc12 | 259 to 260
CCC(=O)c1sc(Oc2ccc3c(c2)OCO3)c2c1CCc1cnn(C)c1-2 | 99 to 100
COc1cc(Nc2c(C#N)cnc3cc(-c4cnc(CN5CCN(C)CC5)n4C)sc23)c(Cl)cc1Cl | 234 to 235
C#Cc1ccc(C(=C2CC(C)(C)CC(C)(C)C2)c2ccc(O)cc2)cc1 | 138 to 139
CCc1ccc2c(c1)C(=O)c1ccc(-c3nnn[nH]3)cc1S2(=O)=O | 239
CNC(=O)c1cc(N2CCN(C)CC2)ncc1Br | 122 to 125
CNC(=O)c1cc2ccc3c(c2c(-c2ccc4c(c2)OCO4)c1CO)OCO3 | 233 to 235
N#Cc1cnn2c(-c3cc(Cl)ccc3Cl)ccnc12 | 202 to 204
COc1ccc(C#Cc2ccc(OC3CN4CCC3CC4)cc2)cc1 (stereo unspecified) | 112 to 115
CCn1ncc2c3noc(-c4ccc(F)cc4)c3cnc21 | 222 to 223
CC1(C(=O)Nc2ccc(OCC3CC3)c(Cl)c2)CC1 | 111 to 113
CSc1ncc(O)c(O)n1 | 213 to 215

Structure (SMILES) | melting point [°C]
CC1=C(C(=O)OCCN(Cc2ccccc2)Cc2ccccc2)C(c2ccccc2C(F)(F)F)c2c(ccnc2OC(C)C)N1 (stereo unspecified) | 132 to 133
O=Cc1cc([N+](=O)[O-])c(Cl)cc1Cl | 61 to 63
CS(=O)(=O)OC(c1ccc(C(OS(C)(=O)=O)(C(F)(F)F)C(F)(F)F)cc1)(C(F)(F)F)C(F)(F)F | 151
Cn1c(C(F)(F)F)cc(=O)n(-c2cc(OC(=O)Nc3cccc(C(F)(F)F)c3)c(Cl)cc2F)c1=O | 153 to 155
CC(C)Sc1cc2c(cc1Cl)N=CNS2(=O)=O | 231 to 232
S=C(c1ccc(Br)cc1)N1CCOCC1 | 135 to 137
FC(F)(F)c1ccc(CCc2cc(OCc3ccccc3)c(OCc3ccccc3)nn2)cc1Cl | 169 to 170
CCCCCCCCCCc1c(C(=O)O)sc2c1sc1c3sc(C(=O)O)c(CCCCCCCCCC)c3sc21 | 316 to 318
CCCc1c(SC(=O)N(C)C)ccc2c(=O)cc(C(=O)OCC)oc12 | 113 to 114
CCSc1ccc(-c2nccs2)c2c1C(=O)CC(C)C2 (stereo unspecified) | 117 to 118
O=CNCN1CCCCCC1=O | 48
O=C(CN1CCC(Cc2ccc(F)cc2)CC1)Nc1ccc2[nH]c(=O)oc2c1 | 228 to 231
COc1cc(OC)c(-c2nc(N)sc2C)cc1Cl | 188
CN1C(=O)C(c2ccc(OC(F)F)cc2)(C2CCCCC2)N=C1N (stereo unspecified) | 178 to 180
O=[N+]([O-])c1cc(S(=O)(=O)NCCO)sc1Cl | 99
Cc1cccc(NC(=O)Cn2c3c(c4c(Cl)c(Cl)ccc42)CCN(C(=O)OC(C)(C)C)CC3)c1C | 232 to 233
COc1ccc2c(c1)CNCC(=O)N2 | 148
NC(=O)CN(C(=O)CCCOc1ccc([N+](=O)[O-])c(C=O)c1)C1CCCCC1 | 104 to 105
CCCCCOC(=O)c1cc(NC(=O)C2=C(C)OCCS2)ccc1Cl | 65 to 68

Next, values leading:

melting point [°C] | Structure (SMILES)
113 | O=Cc1c2ccccc2cc2sccc12
133 to 135 | Cc1cccc2nc3c(nc12)C=CCC3=O
205 to 208 | COc1ccc(CNc2n[nH]c3ncnc(Nc4cccc(Cl)c4)c23)cc1Cl
136 to 138 | CC(C)(CO)Nc1nc(-c2ccccc2)nc2ccccc12
165 to 166 | COc1ccc(C(C)(C)C)cc1NC(=O)Nc1ccc(C)cc1N
185 | COc1cc(Nc2nccc(-c3ccccn3)n2)cc(OC)c1OC
94 to 95 | CC(C)c1c(CO)c(-c2ccc(F)cc2)n2ccccc12
201 to 202 | COCCNC(=O)c1cc(-c2ccccc2)c(=O)n2ccc3ccsc3c12
137 to 138 | CC(C#Cc1cccc(Oc2ccc(F)cc2)c1)N(O)C(N)=O (stereo unspecified)
< 80 | CC(C)(O)c1cccc(Oc2cccc(-c3c(Cc4ccccc4)cnc4c(C(F)(F)F)cccc34)c2)c1
62.7 | COc1ccc(C=C2c3ccccc3CCc3ccccc32)cc1N
120 to 121 | O=C1c2ccc([N+](=O)[O-])cc2C(=O)N1CCSc1ccccc1
89.5 to 91 | COc1ccc(CC(C(=O)n2ccnc2)C(C)(C)C)cc1 (stereo unspecified)
130 to 133 | COc1ccc(-c2cc(CO)c(=O)n(CCCc3ccc(F)cc3)n2)cc1F
120 | Cc1ccc(-c2c(Cl)nc(-c3cccs3)nc2Cl)cc1
161 to 163 | CCOC(=O)c1ccc(NC(=O)C=C(c2ccc(F)cc2)c2ccc(F)cc2)cc1
224 to 227 | COc1ccc2[nH]c(C(=O)N3CC(CCl)c4c3cc(O)c3ncccc43)cc2c1 (stereo unspecified)

melting point [°C] | Structure (SMILES)
120 | Cc1cccc(-c2nc3ccc(OCCCN4CCCC4)cc3n2Cc2ccccc2)c1
69 to 71 | C=CCCCN(C(=O)OC(C)(C)C)c1cc(OCc2ccccc2)c2ccccc2c1I
116 | COc1ccc(C(=O)c2ccc([N+](=O)[O-])c(CO)c2)cc1
267 to 268 | Cc1ccc(Sc2c(O)c3ccc(Cl)cc3[nH]c2=O)cc1C
147 | COc1ccccc1C1=CC(N2CCN(Cc3ccc(C)cc3)CC2)=NC12C=CC(=O)C=C2
157 to 158 | FC(F)(F)c1nc2cc(Cl)c(Cl)cc2nc1-c1nc2ccccc2o1
201 to 204 | Cc1ccsc1C(=O)Nc1ccc(C(=O)N2Cc3ccccc3Cc3ccccc32)cc1
166 to 168 | CCOP(=O)(/C=C/c1cn(-c2ccccc2)nc1OCc1ccc(OCc2nc(-c3cccc(OCC(=O)O)c3)oc2C)c(OC)c1)OCC
75 to 77 | CC(C)(C)C(=O)OCOC(=O)C1CCc2c(c3ccccc3n2C(=O)c2ccccc2)C1 (stereo unspecified)
188 to 190 | CC(=O)Nc1nc(-c2cccc3ccccc23)co1
73 to 74 | CC(C)(COc1ccccc1)C(=O)c1ccc(Br)cc1
214 to 215 | O=C(c1cc2ccc(O)cc2[nH]1)N1CCC(Cc2ccccc2)CC1
56 to 57 | COc1ccc(C(C#Cc2ccccc2)Cc2nc(C)co2)cc1OC1CCCC1 (racemic)
51 to 53 | COc1ccc(OC(C)=O)c2ccccc12
183 | O=C(O)c1cccc(Oc2ccnc(Cl)c2)n1
193 to 195 | COc1cn(-c2ccc(N3CCOCC3=O)cc2F)nc(-c2ccnn2-c2ccccc2)c1=O
